From ChEMBL document CHEMBL5113517, “Structure-Based Design, Optimization, and Evaluation of Potent Stabilized Peptide Inhibitors Disrupting MTDH and SND1 Interaction” (J Med Chem, 2022)
pKd: −log10 of the molar value. Calls of active or inactive are those of the source. The calls are words filed in the database; no cut-off is given here. Peptide text beside a SMILES is read from it.

Assays:
[1] = test system: MDA-MB-231; assay: Cytotoxicity against human MDA-MB-231 cells assessed as reduction in cell viability at 6.25 to 200 uM incubated for 72 hrs by CCK8 assay; type: functional, cell-based; conditions: dose 6.25-200 µM
[2] = organism: Homo sapiens; assay: Inhibition of GST-tagged MTDH (364 ro 582 residues)/His-tagged SND1 (16 to 339 residues) (unknown origin) interaction measured after 12 hrs by pull down assay
[3] = test system: MDA-MB-231; assay: Inhibition of cell migration in human MDA-MB-231 cells measured after 24 to 48 hrs by wound healing assay; type: functional, cell-based; conditions: time 24-48 hrs
[4] = Binding affinity to MTDH /His-SND1 (unknown origin) expressed in Escherichia coli BL21(DE3) assessed as dissociation constant by fluorescence polarization assay; parameters: species or system Homo sapiens
[5] = test system: MDA-MB-231; assay: Cell cycle arrest in human MDA-MB-231 cells assessed as accumulation at G0/G1 phase at 100 uM measured after 48 hrs by propidium iodide based flow cytometry analysis (reference value: 57.81 %); type: functional
[6] = test system: MDA-MB-468; assay: Cytotoxicity against human MDA-MB-468 cells assessed as reduction in cell viability incubated for 72 hrs by CCK8 assay; type: functional, cell-based
[7] = test system: MDA-MB-231; assay: Cell cycle arrest in human MDA-MB-231 cells assessed as accumulation at S phase at 100 uM measured after 48 hrs by flow cytometric analysis flow cytometry analysis (reference value: 25.81%); type: functional
[8] = test system: MDA-MB-231; assay: Cell cycle arrest in human MDA-MB-231 cells assessed as accumulation at G2/M phase at 50 uM measured after 48 hrs by flow cytometric analysis flow cytometry analysis (reference value: 15.84 %); type: functional
[9] = test system: MDA-MB-231; assay: Cell cycle arrest in human MDA-MB-231 cells assessed as accumulation at G0/G1 phase at 50 uM measured after 48 hrs by flow cytometric analysis flow cytometry analysis (reference value: 58.28 %); type: functional
[10] = Drug uptake in human MDA-MB-231 cells assessed as increase in colocalization at 10 uM by confocal microscopy; type: ADME, cell-based; conditions: mda-mb-231, 10 µM
[11] = test system: MDA-MB-231; assay: Antiproliferative activity against human MDA-MB-231 cells assessed as growth inhibition at 100 uM in presence of paclitaxel; type: functional, cell-based
[12] = test system: MDA-MB-231; assay: Cell cycle arrest in human MDA-MB-231 cells assessed as accumulation at G2/M phase at 100 uM measured after 48 hrs by flow cytometric analysis flow cytometry analysis (reference value: 16.38 %); type: functional
[13] = Drug uptake in human MDA-MB-231 cells assessed as increase in cell penetration at 10 uM incubated for 12 hrs by flow cytometry method; type: ADME, cell-based; conditions: mda-mb-231, 12 h
[14] = test system: MDA-MB-231; assay: Cytotoxicity against human MDA-MB-231 cells assessed as reduction in cell viability at 100 uM incubated for 72 hrs by CCK8 assay; type: functional
[15] = test system: MDA-MB-231; assay: Cell cycle arrest in human MDA-MB-231 cells assessed as accumulation at S phase at 50 uM measured after 48 hrs by flow cytometric analysis flow cytometry analysis (reference value: 25.88%); type: functional
[16] = Toxicity in mouse RBC assessed as induction of hemolysis at 200 uM measured after 1 hr by microplate reader assay; type: cell-based; conditions: erythrocyte
[17] = test system: MDA-MB-231; assay: Cytotoxicity against human MDA-MB-231 cells assessed as reduction in cell viability incubated for 72 hrs by CCK8 assay; type: functional, cell-based
[18] = test system: MCF-10A; assay: Cytotoxicity against human MCF-10A cells assessed as reduction in cell viability at 6.25 to 200 uM incubated for 72 hrs by CCK8 assay; type: toxicity, cell-based; conditions: dose 6.25-200 µM
[19] = test system: MDA-MB-468; assay: Cytotoxicity against human MDA-MB-468 cells assessed as reduction in cell viability at 6.25 to 200 uM incubated for 72 hrs by CCK8 assay; type: functional, cell-based; conditions: dose 6.25-200 µM
[20] = Stability of the compound in mouse serum measured after 3 to 7 days by HPLC analysis; type: ADME, cell-free; conditions: time 3-7 day
[21] = test system: MDA-MB-231; assay: Inhibition of GST-tagged MTDH (364 ro 582 residues)/His-tagged SND1 (16 to 339 residues) interaction in human MDA-MB-231 cells measured after 12 hrs by co-immunoprecipitation assay; type: cell-based

Row | Drug uptake [10] | Drug uptake [13] | SMILES | pKd [4] | Activity [5] | Activity [7] | Activity [8] | Activity [9] | Activity [12] | Activity [15] | also measured
1 | Active | Active | CC(C)[C@H](NC(=O)[C@H](Cc1c[nH]c2ccccc12)NC(=O)[C@H](CC(N)=O)NC(=O)CNC(=O)[C@H](Cc1c[nH]c2ccccc12)NC(=O)[C@H](CCC(=O)O)NC(=O)[C@H](CCC(=O)O)NC(=O)[C@@H]1CNC(=O)[C@@H](NC(=O)[C@H](Cc2c[nH]c3ccccc23)NC(=O)[C@@H](N)CC(=O)O)CC(=O)N[C@@H](C)C(=O)N2CCC[C@H]2C(=O)N1)C(=O)N[C@@H](CC(=O)O)C(=O)N[C@@H](CCC(=O)O)C(N)=O | 7.13 | 81.56% | 8.32% | 11.55% | 69.94% | 10.12% | 18.5% | Activity [1]: Active; inhibition [2]: Active; inhibition [3]: Active; Activity [6]: Active; Activity [11]: Active; Activity [14]: 60%; Activity [16]: Non-Toxic; Activity [17]: Active; Activity [18]: Non-Toxic; Activity [19]: Active; Stability [20]: Stable; inhibition [21]: Active
2 | Active | Active | CC(C)[C@H](NC(=O)[C@H](Cc1c[nH]c2ccccc12)NC(=O)[C@H](CC(N)=O)NC(=O)CNC(=O)[C@H](Cc1c[nH]c2ccccc12)NC(=O)[C@H](CCC(=O)O)NC(=O)[C@H](CCC(=O)O)NC(=O)[C@H](C)NC(=O)[C@@H]1CCCN1C(=O)[C@H](C)NC(=O)[C@H](CC(N)=O)NC(=O)[C@H](Cc1c[nH]c2ccccc12)NC(=O)[C@@H](N)CC(=O)O)C(=O)N[C@@H](CC(=O)O)C(=O)N[C@@H](CCC(=O)O)C(=O)O (H-DWNAPAEEWGNWVDE-OH) | 7.25 | 61.79% | 22.66% | 16.7% | 60.42% | 15.55% | 22.86% | 
